A short description of data set [1]: Peripheral blood leukocyte and subtype counts in MAD study. Conditions: 150 mg, pre-dose baseline through 14-day dosing (n = 5).
Data set [2] relates to TNF, IL-6, and IL-1β transcripts. As to the kind of experiment: Cytokine mRNA decay in LPS-stimulated macrophages with actinomycin D. In kind it is cell-based, human. The note with it: 1 μM CC-99677 with 10 μg/mL actinomycin D, normalized to GAPDH. The source says:
After each time point, macrophages were washed with PBS and lysed with RLT Plus Lysis Buffer (Qiagen, Germantown, MD). RNA was isolated using the QiaCube, followed by cDNA preparation using Superscript IV enzyme mix (Invitrogen, Thermo Fisher, Waltham, MA).

We go through 1 molecule from PMC9386913 (Arthritis Research & Therapy, 2022).

Regarding `CCOCc1cnc(Cl)nc1Oc1ccc2c(ccc3sc4c(c32)NC[C@@H](C)NC4=O)n1` [CC-99677], the “Mean WBC, lymphocyte, monocyte, and neutrophil counts” value in data set [1] is listed as “comparable to placebo”. Further, the “mRNA decay of TNF, IL-6, and IL-1β transcripts” value in data set [2] was “significantly greater mRNA decay compared with actinomycin D alone”.
